This note sets out measurements from PubChem BioAssay AID330 (DTP/NCI, 2004).

The test system of this experiment is P388 leukemia ip, CD2F1 mice, survival T/C. Briefly: NCI In Vivo Anticancer Drug Screen. Data for tumor model P388 Leukemia (intraperitoneal) in CD2F1 (CDF1) mice. The settings on record: endpoint: median survival time, higher = longer survival. The procedure, abridged: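 Mice carrying the transplanted tumor received test compound or vehicle. Survival was recorded in each group, and the value is the treated-group measurement divided by that of the vehicle-treated control group.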

Setting [1] is: dose: 60.0 mg/kg/injection, schedule: Q01DX005 (ip), vehicle: saline with Tween-80.
Where [2] appears, read: dose: 120.0 mg/kg/injection, schedule: Q01DX005 (ip), vehicle: saline with Tween-80.
Setting [3] is: dose: 240.0 mg/kg/injection, schedule: Q01DX005 (ip), vehicle: saline with Tween-80.
Where [4] appears, read: dose: 50.0 mg/kg/injection, schedule: Q01DX009 (ip), vehicle: saline with Tween-80.
Where [5] appears, read: dose: 100.0 mg/kg/injection, schedule: Q01DX009 (ip), vehicle: saline with Tween-80.
Setting [6] is: dose: 200.0 mg/kg/injection, schedule: Q01DX009 (ip), vehicle: saline with Tween-80.
The mark [7] stands for this setting: dose: 50.0 mg/kg/injection, schedule: Q01DX005 (ip), vehicle: saline.
Where [8] appears, read: dose: 100.0 mg/kg/injection, schedule: Q01DX005 (ip), vehicle: saline.
Setting [9] is: dose: 200.0 mg/kg/injection, schedule: Q01DX005 (ip), vehicle: saline.
[10] abbreviates: dose: 50.0 mg/kg/injection, schedule: Q01DX005 (ip), vehicle: saline with Tween-80.
Setting [11] is: dose: 100.0 mg/kg/injection, schedule: Q01DX005 (ip), vehicle: saline with Tween-80.
Setting [12] is: dose: 200.0 mg/kg/injection, schedule: Q01DX005 (ip), vehicle: saline with Tween-80.
Where [13] appears, read: dose: 100.0 mg/kg/injection, schedule: Q04DX003 (ip), vehicle: saline with Tween-80.
The mark [14] stands for this setting: dose: 200.0 mg/kg/injection, schedule: Q04DX003 (ip), vehicle: saline with Tween-80.
[15] abbreviates: dose: 400.0 mg/kg/injection, schedule: Q04DX003 (ip), vehicle: saline with Tween-80.
[16] abbreviates: dose: 400.0 mg/kg/injection, schedule: Q01DX009 (ip), vehicle: saline with Tween-80.
Where [17] appears, read: dose: 50.0 mg/kg/injection, schedule: Q01DX005 (ip), vehicle: Klucel (hydroxypropylcellulose) (HPC).
Where [18] appears, read: dose: 100.0 mg/kg/injection, schedule: Q01DX005 (ip), vehicle: Klucel (hydroxypropylcellulose) (HPC).
Setting [19] is: dose: 200.0 mg/kg/injection, schedule: Q01DX005 (ip), vehicle: Klucel (hydroxypropylcellulose) (HPC).

Each structure is given as a SMILES string. “And” between values parts separate entries of the source, which are not always exact repeats. Equal entries are not always repeated. Inconclusive results and toxic doses are left out.

Consider `O=C(Nc1ccc(Cl)cc1)Nc1nnc(-c2ccc(-c3nnc(NC(=O)Nc4ccc(Cl)cc4)o3)cc2)o1`, for which the T/C is 104 % of control under setting [1], 100 % of control under setting [2] and 98 % of control under setting [3].

Consider `Cc1cc(NCCCN(C)C)c2cc3ccc4cccc5ccc(c2n1)c3c45`, for which the T/C reads like this: under setting [4], 109 % of control; under setting [5], 108 % of control.

Consider `C/C1=C\CC/C(C)=C/CC/C(C)=C/CC(C)(C)/C=C/C1`, for which the T/C is, setting by setting: (dose: 25.0 mg/kg/injection, schedule: Q01DX009 (ip), vehicle: saline + Tween-80 + alcohol) 112 % of control; (dose: 50.0 mg/kg/injection, schedule: Q01DX009 (ip), vehicle: saline + Tween-80 + alcohol) 112 % of control; (dose: 100.0 mg/kg/injection, schedule: Q01DX009 (ip), vehicle: saline + Tween-80 + alcohol) 111 % of control.

For the molecule `Cn1cc([N+](=O)[O-])c([N+](=O)[O-])c1`, the T/C runs as follows: under setting [4], 102 % of control; under setting [5], 103 % of control; under setting [6], 102 % of control.

`O=C(O)COc1cccc2c(=O)cc(-c3ccccc3)oc12`: the T/C under setting [7] was 102 % of control, the T/C under setting [8] was 101 % of control and the T/C under setting [9] was 99 % of control.

Turning to `Cc1ncc(S(=O)(=O)Cc2ccc3c(c2)OCO3)c(N)n1`, the T/C reads like this: (dose: 100.0 mg/kg/injection, schedule: Q01DX001 (ip), vehicle: saline) 96 % of control; (dose: 200.0 mg/kg/injection, schedule: Q01DX001 (ip), vehicle: saline) 95 % of control; (dose: 400.0 mg/kg/injection, schedule: Q01DX001 (ip), vehicle: saline) 95 % of control.

For the molecule `COc1cc2c(c(OC)c1OC)-c1ccc(SC)c(=O)cc1[C@@H](NC1OC(COC(C)=O)C(OC(C)=O)C(OC(C)=O)C1OC(C)=O)CC2` (stereo partly specified), the T/C reads like this: (dose: 0.75 mg/kg/injection, schedule: Q01DX009 (ip), vehicle: other) 97 % of control; (dose: 1.5 mg/kg/injection, schedule: Q01DX009 (ip), vehicle: other) 97 % of control; (dose: 3.0 mg/kg/injection, schedule: Q01DX009 (ip), vehicle: other) 102 % of control; (dose: 6.0 mg/kg/injection, schedule: Q01DX009 (ip), vehicle: other) 107 % of control; (dose: 12.0 mg/kg/injection, schedule: Q01DX009 (ip), vehicle: other) 117 % of control; (dose: 24.0 mg/kg/injection, schedule: Q01DX009 (ip), vehicle: other) 120 % of control. For the same molecule, the T/C (dose: 192.0 mg/kg/injection, schedule: Q01DX009 (ip), vehicle: other) was 150 % of control.

On to `COC1(C)OC23C(=O)N(C)C(=O)N(C)C2(O1)N(C(C)=O)C(=O)N3C` (stereo unspecified), for which the T/C under setting [10] was 100 % of control, the T/C under setting [11] is 105 % of control and the T/C under setting [12] was 98 % of control.

On to `CCOP(=O)(N(CCCl)CCCl)N1CCc2ccccc2C1` (stereo unspecified), for which the T/C was 103 % of control (dose: 12.5 mg/kg/injection, schedule: Q04DX003 (ip), vehicle: saline with Tween-80); 98 % of control (dose: 25.0 mg/kg/injection, schedule: Q04DX003 (ip), vehicle: saline with Tween-80); 103 % of control (dose: 50.0 mg/kg/injection, schedule: Q04DX003 (ip), vehicle: saline with Tween-80); 110 % of control under setting [13]; 112 % of control under setting [14]; 119 % of control under setting [15].

Consider `COc1ccc(N=Cc2ccc(C(N)=S)cc2)cc1`, for which the T/C (dose: 50.0 mg/kg/injection, schedule: Q01DX001 (ip), vehicle: Klucel (hydroxypropylcellulose) (HPC)) was 107 % of control; the T/C (dose: 100.0 mg/kg/injection, schedule: Q01DX001 (ip), vehicle: Klucel (hydroxypropylcellulose) (HPC)) is 102 % of control; the T/C (dose: 200.0 mg/kg/injection, schedule: Q01DX001 (ip), vehicle: Klucel (hydroxypropylcellulose) (HPC)) is 98 % of control.

Take `c1ccc(CN2COC3CCCCCCC32)cc1` (stereo unspecified): the T/C by setting is: under setting [7], 104 % of control; under setting [8], 112 % of control; under setting [9], 114 % of control.

Turning to `CC1(C)OC1(C)C`, the T/C was 100 % of control under setting [4], 104 % of control under setting [5], 102 % of control under setting [6] and 111 % of control under setting [16].

Consider `Cn1ncc2c(N)ncnc21`, for which the T/C is, setting by setting: under setting [4], 118 % of control; under setting [13], 109 % of control; under setting [14], 123 % of control.

On to `CC1=NN(C(=O)c2cccnc2)C(=O)C1N=Nc1ccc(S(=O)(=O)Nc2ccccn2)cc1` (stereo unspecified), for which the T/C runs as follows: under setting [13], 94 % of control; under setting [14], 93 % of control; under setting [15], 90 % of control.

Take `Oc1ccc(O)c2nc3ccccc3nc12`: the T/C was 104 % of control (dose: 1.56 mg/kg/injection, schedule: Q01DX009 (ip), vehicle: distilled water + Tween-80); 105 % of control (dose: 3.12 mg/kg/injection, schedule: Q01DX009 (ip), vehicle: distilled water + Tween-80); 104 % of control and 97 % of control (dose: 6.25 mg/kg/injection, schedule: Q01DX009 (ip), vehicle: distilled water + Tween-80).

Turning to `CC(=O)C(N=Nc1ccc(S(=O)(=O)N=C(N)N)cc1)C(C)=O`, the T/C under setting [13] is 90 % of control, the T/C under setting [14] is 88 % of control and the T/C under setting [15] was 87 % of control.

In the case of `NC(=O)[C@@H]1CC2CCC1C2` (stereo partly specified), the T/C by setting is: under setting [17], 88 % of control; under setting [18], 93 % of control; under setting [19], 87 % of control.

As for `O=C1C2CCC(CC2)C1C(c1ccccc1)c1ccccc1` (stereo unspecified), the T/C is, setting by setting: under setting [4], 93 % of control; under setting [5], 91 % of control; under setting [6], 90 % of control.

Regarding `CN(CO)c1nc(N(C)CO)nc(N(C)CO)n1`, the T/C reads like this: (dose: 12.5 mg/kg/injection, schedule: Q01DX009 (ip), vehicle: saline with Tween-80) 110 % of control; (dose: 12.5 mg/kg/injection, schedule: Q01DX009 (ip), vehicle: saline) 103 % of control; (dose: 25.0 mg/kg/injection, schedule: Q01DX009 (ip), vehicle: saline with Tween-80) 119 % of control; (dose: 50.0 mg/kg/injection, schedule: Q01DX009 (ip), vehicle: saline) 160 % of control; under setting [5], 151 % of control; (dose: 100.0 mg/kg/injection, schedule: Q01DX009 (ip), vehicle: saline) 203 % of control.

`COc1ccc(C(C)c2cc3c(cc2OC(C)O)OCO3)cc1` (stereo unspecified): the T/C is, setting by setting: under setting [1], 92 % of control; under setting [2], 94 % of control; under setting [3], 97 % of control.

For `[O-][n+]1c(Cl)c(Cl)[n+]([O-])c2[nH]c(C(F)(F)F)nc21`, the T/C is 103 % of control (dose: 25.0 mg/kg/injection, schedule: Q01DX005 (ip), vehicle: saline with Tween-80); 96 % of control under setting [10]; 102 % of control under setting [11]; 90 % of control and 96 % of control under setting [12].

As for `COc1ccc(C2OC3=C(Nc4ccc([N+](=O)[O-])cc4N3)C2=O)c(OC)c1` (stereo unspecified), the T/C by setting is: under setting [17], 93 % of control; under setting [18], 101 % of control; under setting [19], 101 % of control.

Consider `O=C(OCc1ccccc1)N1CC=CC1Cc1ccccc1` (stereo unspecified), for which the T/C is 97 % of control (dose: 100.0 mg/kg/injection, schedule: Q01DX001 (ip), vehicle: distilled water + alcohol); 99 % of control (dose: 200.0 mg/kg/injection, schedule: Q01DX001 (ip), vehicle: distilled water + alcohol); 100 % of control (dose: 400.0 mg/kg/injection, schedule: Q01DX001 (ip), vehicle: distilled water + alcohol).

Regarding `COc1ccc(/C(O)=C/c2nc3ccc([N+](=O)[O-])cc3[nH]c2=O)cc1`, the T/C runs as follows: (dose: 60.0 mg/kg/injection, schedule: Q01DX005 (ip), vehicle: Klucel + Tween-80) 97 % of control; (dose: 120.0 mg/kg/injection, schedule: Q01DX005 (ip), vehicle: Klucel + Tween-80) 94 % of control; (dose: 240.0 mg/kg/injection, schedule: Q01DX005 (ip), vehicle: Klucel + Tween-80) 95 % of control.

`Oc1c(Br)cc(Br)c2ccccc12`: the T/C is 105 % of control under setting [5], 114 % of control under setting [6] and 111 % of control under setting [16].
